Patent US20090298820A1, “3-SUBSTITUTED-1H-PYRROLO[2,3-B]PYRIDINE AND 3-SUBSTITUTED-1H-PYRROLO[3,2-B]PYRIDINE COMPOUNDS, THEIR USE AS MTOR KINASE AND PI3 KINASE INHIBITORS, AND THEIR SYNTHESES” (Wyeth, priority 2008, published 2009)

Key:
Type in all cases: biochemical
[1] = target: PI3Kα (Homo sapiens, UniProt P42336); test: PI3K-alpha fluorescence polarization assay; details: read-out: PI3Kα Median IC50
[2] = target: PI3Kγ (Homo sapiens, UniProt P48736); test: PI3K-gamma fluorescence polarization assay; details: read-out: PI3Kγ Median IC50
PI3Kγ, sequence (P48736 whole entry, species assumed): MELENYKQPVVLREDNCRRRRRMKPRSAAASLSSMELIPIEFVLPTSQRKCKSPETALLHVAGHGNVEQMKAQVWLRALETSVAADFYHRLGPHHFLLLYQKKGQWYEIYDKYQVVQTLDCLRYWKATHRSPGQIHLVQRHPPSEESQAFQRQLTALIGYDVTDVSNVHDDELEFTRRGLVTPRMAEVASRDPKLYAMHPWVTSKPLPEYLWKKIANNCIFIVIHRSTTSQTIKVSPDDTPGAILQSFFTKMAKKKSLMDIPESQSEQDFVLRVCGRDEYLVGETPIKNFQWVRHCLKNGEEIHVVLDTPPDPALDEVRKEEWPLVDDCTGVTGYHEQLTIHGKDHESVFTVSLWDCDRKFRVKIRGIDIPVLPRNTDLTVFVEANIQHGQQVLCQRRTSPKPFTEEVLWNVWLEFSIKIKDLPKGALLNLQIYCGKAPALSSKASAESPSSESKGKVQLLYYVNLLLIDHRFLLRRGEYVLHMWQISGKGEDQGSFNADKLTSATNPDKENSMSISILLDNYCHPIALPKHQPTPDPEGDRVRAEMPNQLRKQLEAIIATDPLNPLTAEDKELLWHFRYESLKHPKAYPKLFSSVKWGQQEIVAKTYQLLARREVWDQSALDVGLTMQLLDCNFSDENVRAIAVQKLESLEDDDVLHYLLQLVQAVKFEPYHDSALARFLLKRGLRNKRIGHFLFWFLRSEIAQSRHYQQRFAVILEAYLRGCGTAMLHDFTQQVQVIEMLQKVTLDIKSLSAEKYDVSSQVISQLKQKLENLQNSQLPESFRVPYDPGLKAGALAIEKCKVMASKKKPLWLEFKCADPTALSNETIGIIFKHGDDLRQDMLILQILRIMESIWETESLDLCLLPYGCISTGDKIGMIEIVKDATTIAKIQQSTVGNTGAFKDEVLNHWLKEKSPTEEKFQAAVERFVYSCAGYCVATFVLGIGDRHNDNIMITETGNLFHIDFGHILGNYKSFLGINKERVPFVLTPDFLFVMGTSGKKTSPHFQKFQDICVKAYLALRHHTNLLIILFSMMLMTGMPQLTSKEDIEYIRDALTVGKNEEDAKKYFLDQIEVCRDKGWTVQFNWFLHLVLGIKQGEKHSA

[3] = target: mTOR (Homo sapiens, UniProt P42345); test: mTOR enzyme assay (DELFIA format, His6-S6K substrate); details: read-out: mTOR Kinase Median IC50

PI3Kα, sequence (P42336 whole entry, species assumed): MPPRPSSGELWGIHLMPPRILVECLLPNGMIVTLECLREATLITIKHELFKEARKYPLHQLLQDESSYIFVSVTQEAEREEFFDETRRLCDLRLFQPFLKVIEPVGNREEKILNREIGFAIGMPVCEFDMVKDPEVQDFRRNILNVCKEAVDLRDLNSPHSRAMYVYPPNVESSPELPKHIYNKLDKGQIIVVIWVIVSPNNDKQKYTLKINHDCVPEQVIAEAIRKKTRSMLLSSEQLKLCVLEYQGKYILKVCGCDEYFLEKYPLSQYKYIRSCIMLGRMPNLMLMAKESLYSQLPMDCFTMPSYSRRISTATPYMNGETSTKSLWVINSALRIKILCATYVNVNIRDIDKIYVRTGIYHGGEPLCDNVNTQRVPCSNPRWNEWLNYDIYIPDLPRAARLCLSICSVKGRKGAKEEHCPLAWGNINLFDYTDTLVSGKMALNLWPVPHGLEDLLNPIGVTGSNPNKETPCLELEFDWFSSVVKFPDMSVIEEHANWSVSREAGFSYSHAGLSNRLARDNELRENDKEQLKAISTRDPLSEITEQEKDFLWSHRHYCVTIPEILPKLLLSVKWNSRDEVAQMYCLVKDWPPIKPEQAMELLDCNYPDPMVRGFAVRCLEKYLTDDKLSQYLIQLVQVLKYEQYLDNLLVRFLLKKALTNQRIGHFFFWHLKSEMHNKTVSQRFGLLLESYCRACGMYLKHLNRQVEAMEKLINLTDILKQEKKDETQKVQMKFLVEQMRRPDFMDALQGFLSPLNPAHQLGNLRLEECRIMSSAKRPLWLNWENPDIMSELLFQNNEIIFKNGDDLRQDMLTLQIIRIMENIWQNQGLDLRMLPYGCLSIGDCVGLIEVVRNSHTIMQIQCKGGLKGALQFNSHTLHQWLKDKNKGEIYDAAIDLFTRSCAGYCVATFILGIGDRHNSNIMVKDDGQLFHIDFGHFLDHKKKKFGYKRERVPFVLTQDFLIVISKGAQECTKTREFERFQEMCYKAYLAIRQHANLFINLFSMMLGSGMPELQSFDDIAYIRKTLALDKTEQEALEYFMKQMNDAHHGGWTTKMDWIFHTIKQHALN
PI3Kα, sequence (P27986 whole entry partner, species assumed): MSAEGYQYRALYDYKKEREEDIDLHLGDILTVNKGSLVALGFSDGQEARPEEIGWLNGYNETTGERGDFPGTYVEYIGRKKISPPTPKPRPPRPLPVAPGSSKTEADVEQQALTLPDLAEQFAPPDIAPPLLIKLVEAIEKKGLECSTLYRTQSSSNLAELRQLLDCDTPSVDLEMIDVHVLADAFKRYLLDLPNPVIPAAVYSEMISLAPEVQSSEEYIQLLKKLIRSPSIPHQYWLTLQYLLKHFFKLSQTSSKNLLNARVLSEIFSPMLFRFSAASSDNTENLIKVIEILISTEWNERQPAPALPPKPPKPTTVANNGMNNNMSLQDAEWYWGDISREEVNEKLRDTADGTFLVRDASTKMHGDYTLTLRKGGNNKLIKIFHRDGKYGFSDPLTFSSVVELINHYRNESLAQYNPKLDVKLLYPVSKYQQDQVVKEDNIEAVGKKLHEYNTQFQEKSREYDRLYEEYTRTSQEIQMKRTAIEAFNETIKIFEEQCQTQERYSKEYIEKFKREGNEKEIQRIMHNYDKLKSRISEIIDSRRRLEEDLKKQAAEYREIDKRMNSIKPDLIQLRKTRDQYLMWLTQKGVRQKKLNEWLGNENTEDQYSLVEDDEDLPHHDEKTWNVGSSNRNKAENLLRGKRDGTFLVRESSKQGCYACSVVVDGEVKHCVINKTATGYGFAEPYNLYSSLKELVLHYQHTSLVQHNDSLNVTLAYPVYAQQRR

Row | SMILES | IC50 [1] [µM] | IC50 [2] [µM] | IC50 [3] [µM]
1 | CN1CCN(c2ccc(NC(=O)Nc3ccc4c(c3)C(=O)/C(=C/c3cn(C)c5nccc(N6CCC(C(=O)N(C)C)CC6)c35)O4)cn2)CC1 [Compound 230, N,N-dimethyl-1-(1-methyl-3-{(Z)-[5-({[6-(4-methylpiperazin-1-yl)pyridin-3-yl]carbamoyl}amino)-3-oxo-1-benzofuran-2(3H)-ylidene]methyl}-1H-pyrrolo[2,3-b]pyridin-4-yl)piperidine-4-carboxamide] | 10.9 | > 10 | 0.074
2 | Cn1cncc1CNC(=O)Nc1ccc2c(c1)C(=O)/C(=C/c1cn(C)c3nccc(N4CC5CCC(C4)O5)c13)O2 [Compound 232, 1-[(1-methyl-1H-imidazol-5-yl)methyl]-3-[(2Z)-2-{[1-methyl-4-(8-oxa-3-azabicyclo[3.2.1]oct-3-yl)-1H-pyrrolo[2,3-b]pyridin-3-yl]methylidene}-3-oxo-2,3-dihydro-1-benzofuran-5-yl]urea] | 1.14 | > 10 | 0.16
3 | Cn1cc(/C=C2\Oc3ccc(NC(=O)Nc4cccnc4)cc3C2=O)c2c(N3CCC(C(=O)N4CC5CCC4CO5)CC3)ccnc21 (stereo not drawn) [Compound 233, 1-[(2Z)-2-({1-methyl-4-[4-(2-oxa-5-azabicyclo[2.2.2]oct-5-ylcarbonyl)piperidin-1-yl]-1H-pyrrolo[2,3-b]pyridin-3-yl}methylidene)-3-oxo-2,3-dihydro-1-benzofuran-5-yl]-3-pyridin-3-ylurea] | 0.196 | 1.73 | 0.038
4 | Cn1cc(/C=C2\Oc3ccc(NC(=O)Nc4cccnc4)cc3C2=O)c2c(C(=O)N3CCCCC3)ccnc21 [Compound 234, 1-[(2Z)-2-{[1-methyl-4-(piperidin-1-ylcarbonyl)-1H-pyrrolo[2,3-b]pyridin-3-yl]methylidene}-3-oxo-2,3-dihydro-1-benzofuran-5-yl]-3-pyridin-3-ylurea] | 0.253 | 2.5 | > 4
5 | CCN(CC)C(=O)C1CCN(c2ccnc3c2c(/C=C2\Oc4ccc(NC(=O)Nc5cccnc5)cc4C2=O)cn3C)CC1 [Compound 244, N,N-diethyl-1-{1-methyl-3-[(Z)-{3-oxo-5-[(pyridin-3-ylcarbamoyl)amino]-1-benzofuran-2(3H)-ylidene}methyl]-1H-pyrrolo[2,3-b]pyridin-4-yl}piperidine-4-carboxamide] | 0.308 | 3.38 | 0.115
6 | CONC(=O)c1ccc(-c2ccnc3c2c(/C=C2\Oc4ccc(NC(=O)Nc5cccnc5)cc4C2=O)cn3C)cc1 [Compound 248, N-methoxy-4-{1-methyl-3-[(Z)-{3-oxo-5-[(pyridin-3-ylcarbamoyl)amino]-1-benzofuran-2(3H)-ylidene}methyl]-1H-pyrrolo[2,3-b]pyridin-4-yl}benzamide] | 0.976 | 0.479 | 1.65
7 | Cn1cc(/C=C2\Oc3ccc(NC(=O)Nc4cccnc4)cc3C2=O)c2c(N3CCC(C(=O)N4CCCC4)CC3)ccnc21 [Compound 253, 1-[(2Z)-2-({1-methyl-4-[4-(pyrrolidin-1-ylcarbonyl)piperidin-1-yl]-1H-pyrrolo[2,3-b]pyridin-3-yl}methylene)-3-oxo-2,3-dihydro-1-benzofuran-5-yl]-3-pyridin-3-ylurea] | 0.909 | 0.661 | 0.0082
8 | Cn1cc(/C=C2\Oc3ccc(NC(=O)Nc4cccnc4)cc3C2=O)c2c(N3CCC(C(=O)NCCO)CC3)ccnc21 [Compound 254, N-(2-hydroxyethyl)-1-{1-methyl-3-[(Z)-{3-oxo-5-[(pyridin-3-ylcarbamoyl)amino]-1-benzofuran-2(3H)-ylidene}methyl]-1H-pyrrolo[2,3-b]pyridin-4-yl}piperidine-4-carboxamide] | 3.33 | 1.14 | 0.0042
9 | COC1CCN(C(=O)c2ccc(-c3ccnc4c3c(/C=C3\Oc5ccc(NC(=O)Nc6cccnc6)cc5C3=O)cn4C)cc2)C1 (stereo not drawn) [Compound 259, 1-{(2Z)-2-[(4-{4-[(3-methoxypyrrolidin-1-yl)carbonyl]phenyl}-1-methyl-1H-pyrrolo[2,3-b]pyridin-3-yl)methylene]-3-oxo-2,3-dihydro-1-benzofuran-5-yl}-3-pyridin-3-ylurea] | 2.06 | 0.529 | 0.0175
10 | COCCNC(=O)C1CCN(c2ccnc3c2c(/C=C2\Oc4ccc(NC(=O)Nc5cccnc5)cc4C2=O)cn3C)CC1 [Compound 260, N-(2-methoxyethyl)-1-{1-methyl-3-[(Z)-{3-oxo-5-[(pyridin-3-ylcarbamoyl)amino]-1-benzofuran-2(3H)-ylidene}methyl]-1H-pyrrolo[2,3-b]pyridin-4-yl}piperidine-4-carboxamide] | 0.744 | 1.92 | 0.0084

Results, then the compound that gave them:

Row | IC50 [1] [µM] | IC50 [2] [µM] | IC50 [3] [µM] | SMILES
11 | 0.703 | > 10 | 0.0315 | CN1CCN(c2ccc(NC(=O)Nc3ccc4c(c3)C(=O)/C(=C/c3cn(C)c5nccc(N6CC7CCC(C6)O7)c35)O4)cn2)CC1 [Compound 231, 1-[(2Z)-2-{[1-methyl-4-(8-oxa-3-azabicyclo[3.2.1]oct-3-yl)-1H-pyrrolo[2,3-b]pyridin-3-yl]methylidene}-3-oxo-2,3-dihydro-1-benzofuran-5-yl]-3-[6-(4-methylpiperazin-1-yl)pyridin-3-yl]urea]
12 | 0.845 | 2.56 | 0.072 | CC(C)NC(=O)Nc1ccc2c(c1)C(=O)/C(=C/c1cn(C)c3nccc(N4CC5CCC(C4)O5)c13)O2 [Compound 235, 1-(1-methylethyl)-3-[(2Z)-2-{[1-methyl-4-(8-oxa-3-azabicyclo[3.2.1]oct-3-yl)-1H-pyrrolo[2,3-b]pyridin-3-yl]methylidene}-3-oxo-2,3-dihydro-1-benzofuran-5-yl]urea]
13 | 0.649 | 3.64 | 0.13 | C[C@H]1COCCN1c1ccnc2c1c(/C=C1\Oc3ccc(NC(=O)Nc4cccnc4)cc3C1=O)cn2C [Compound 238, 1-[(2Z)-2-({1-methyl-4-[(3S)-3-methylmorpholin-4-yl]-1H-pyrrolo[2,3-b]pyridin-3-yl}methylidene)-3-oxo-2,3-dihydro-1-benzofuran-5-yl]-3-pyridin-3-ylurea]
14 | 0.326 | 0.748 | 0.064 | C[C@@H]1CN(C2CCN(c3ccnc4c3c(/C=C3\Oc5ccc(NC(=O)Nc6cccnc6)cc5C3=O)cn4C)CC2)C[C@H](C)O1 [Compound 239, 1-{(2Z)-2-[(4-{4-[(2R,6S)-2,6-dimethylmorpholin-4-yl]piperidin-1-yl}-1-methyl-1H-pyrrolo[2,3-b]pyridin-3-yl)methylidene]-3-oxo-2,3-dihydro-1-benzofuran-5-yl}-3-pyridin-3-ylurea]
15 | 0.167 | 0.219 | 0.0905 | CCN(CCO)C(=O)c1ccc(-c2ccnc3c2c(/C=C2\Oc4cccc(O)c4C2=O)cn3C)cc1 [Compound 243, N-ethyl-N-(2-hydroxyethyl)-4-{3-[(Z)-(4-hydroxy-3-oxo-1-benzofuran-2(3H)-ylidene)methyl]-1-methyl-1H-pyrrolo[2,3-b]pyridin-4-yl}benzamide]
16 | 0.029 | 0.054 | 0.0014 | Cn1cc(/C=C2\Oc3cccc(O)c3C2=O)c2c(-c3ccc(C(=O)N4CCC(O)C4)cc3)ccnc21 (stereo not drawn) [Compound 245, (2Z)-4-hydroxy-2-[(4-{4-[(3-hydroxypyrrolidin-1-yl)carbonyl]phenyl}-1-methyl-1H-pyrrolo[2,3-b]pyridin-3-yl)methylene]-1-benzofuran-3(2H)-one]
17 | 3.3 | 0.484 | 0.03 | COCCN(C)C(=O)c1ccc(-c2ccnc3c2c(/C=C2\Oc4ccc(NC(=O)Nc5cccnc5)cc4C2=O)cn3C)cc1 [Compound 247, N-(2-methoxyethyl)-N-methyl-4-{1-methyl-3-[(Z)-{3-oxo-5-[(pyridin-3-ylcarbamoyl)amino]-1-benzofuran-2(3H)-ylidene}methyl]-1H-pyrrolo[2,3-b]pyridin-4-yl}benzamide]
18 | 0.02 | 0.026 | 0.0006 | COC1CCN(C(=O)c2ccc(-c3ccnc4c3c(/C=C3\Oc5cccc(O)c5C3=O)cn4C)cc2)C1 (stereo not drawn) [Compound 249, (2Z)-4-hydroxy-2-[(4-{4-[(3-methoxypyrrolidin-1-yl)carbonyl]phenyl}-1-methyl-1H-pyrrolo[2,3-b]pyridin-3-yl)methylene]-1-benzofuran-3(2H)-one]
19 | 4.6 | 1.25 | 0.007 | CN1CCN(C(=O)C2CCN(c3ccnc4c3c(/C=C3\Oc5ccc(NC(=O)Nc6cccnc6)cc5C3=O)cn4C)CC2)CC1 [Compound 252, 1-{(2Z)-2-[(1-methyl-4-{4-[(4-methylpiperazin-1-yl)carbonyl]piperidin-1-yl}-1H-pyrrolo[2,3-b]pyridin-3-yl)methylidene]-3-oxo-2,3-dihydro-1-benzofuran-5-yl}-3-pyridin-3-ylurea]
20 | 0.604 | 0.206 | 0.0475 | Cn1cc(/C=C2\Oc3ccc(NC(=O)Nc4cccnc4)cc3C2=O)c2c(N3CCC(C(=O)N4CCCCC4)CC3)ccnc21 [Compound 258, 1-[(2Z)-2-({1-methyl-4-[4-(piperidin-1-ylcarbonyl)piperidin-1-yl]-1H-pyrrolo[2,3-b]pyridin-3-yl}methylene)-3-oxo-2,3-dihydro-1-benzofuran-5-yl]-3-pyridin-3-ylurea]
21 | > 10 | 0.886 | 0.0225 | CN(C)CCNC(=O)C1CCN(c2ccnc3c2c(/C=C2\Oc4ccc(NC(=O)Nc5cccnc5)cc4C2=O)cn3C)CC1 [Compound 261, N-[2-(dimethylamino)ethyl]-1-{1-methyl-3-[(Z)-{3-oxo-5-[(pyridin-3-ylcarbamoyl)amino]-1-benzofuran-2(3H)-ylidene}methyl]-1H-pyrrolo[2,3-b]pyridin-4-yl}piperidine-4-carboxamide]
